According to the supplement of paper PMC10307832:

Experiments:
Assay in all cases: relative viability (nuclei count vs DMSO), 5 days (fraction); higher = more cells survive
[1] = compound: CCCS(=O)(=O)Nc1ccc(F)c(C(=O)c2c[nH]c3ncc(-c4ccc(Cl)cc4)cc23)c1F [Vemurafenib] + CCNC(=O)c1noc(-c2cc(C(C)C)c(O)cc2O)c1-c1ccc(CN2CCOCC2)cc1 [Luminespib] (partner 0.01 µM)
In short: (§1)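 Medians of duplicate plates are given as relative viability. That measure is the nuclei count in treated wells divided by the count in vehicle wells. Counts were taken on 4× images of lung cancer cell lines in 1536-well plates, 5 days after pin-tool dosing the day after seeding with one drug alone or a fixed anchor-drug dose plus five library-drug doses (not always all listed) in √10 steps.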

[2] = compound: CCCS(=O)(=O)Nc1ccc(F)c(C(=O)c2c[nH]c3ncc(-c4ccc(Cl)cc4)cc23)c1F [Vemurafenib] + COc1cccc2cc(-c3nc([C@H]4CC[C@H](C(=O)O)CC4)n4ncnc(N)c34)[nH]c12 [OSI-027] (partner 0.5 µM)
In short: as §1

[3] = compound: COc1cccc2cc(-c3nc([C@H]4CC[C@H](C(=O)O)CC4)n4ncnc(N)c34)[nH]c12 [OSI-027] + CC(=O)c1c(C)c2cnc(Nc3ccc(N4CCNCC4)cn3)nc2n(C2CCCC2)c1=O [Palbociclib] (partner 0.5 µM)
In short: as §1

[4] = compound: CCCS(=O)(=O)Nc1ccc(F)c(C(=O)c2c[nH]c3ncc(-c4ccc(Cl)cc4)cc23)c1F [Vemurafenib] + C[C@]1(O)C[C@@H](c2nc(-c3ccc4ccc(-c5ccccc5)nc4c3)c3c(N)nccn32)C1 [Linsitinib] (partner 1 µM)
In short: as §1

Cell Line	relative viability ([1]; first compound 0.03162 µM)	relative viability ([1]; first compound 0.1 µM)	relative viability ([1]; first compound 0.3162 µM)	relative viability ([1]; first compound 1 µM)	relative viability ([2]; first compound 0.03162 µM)	relative viability ([2]; first compound 0.1 µM)	relative viability ([2]; first compound 0.3162 µM)	relative viability ([2]; first compound 1 µM)	relative viability ([3]; first compound 0.01 µM)	relative viability ([3]; first compound 0.03162 µM)	relative viability ([3]; first compound 0.1 µM)	relative viability ([3]; first compound 0.3162 µM)	relative viability ([3]; first compound 1 µM)	relative viability ([4]; first compound 0.03162 µM)	relative viability ([4]; first compound 0.1 µM)	relative viability ([4]; first compound 0.3162 µM)	relative viability ([4]; first compound 1 µM)
NCI-H2342	0.609	0.622	0.792	0.701	0.621	0.561	0.577	0.643	0.51	0.503	0.492	0.443	0.48				
SW 1573	0.16	0.583	0.377	0.194	0.582	0.591	0.564	0.464	0.388	0.389	0.356	0.333	0.216	0.791	0.886	0.935	0.795
NCI-H1792	0.373	0.345	0.575	0.434	0.705	0.616		0.704	0.578	0.451	0.623	0.604	0.308	0.505	0.417	0.484	0.516
LOU-NH91	0.301			0.412	0.72			0.726	0.556	0.563	0.503	0.567	0.529	0.864	0.535		1.01
LC-2-ad	0.887	0.978		1.05	0.753	0.629		0.747	0.548	0.46	0.516	0.528	0.344	0.801	0.755	0.873	0.749
HOP-62	0.902	0.843	0.931	0.971	0.702	0.938	0.678	0.751	0.475	0.49	0.418	0.457	0.287	0.78	1.01	0.94	0.841
NCI-H650	0.72	0.852		0.637	0.459	0.473		0.421	0.333	0.35	0.302	0.29	0.205	0.709	0.83	0.297	0.595
NCI-H1651	0.91	1.05	0.946	0.84	0.733	0.725	0.698	0.829	0.534	0.502	0.497	0.459	0.393	0.869	1.09	1.02	1.09
CAL-12T	0.375	0.345	0.228	0.847	0.542	0.461	0.801	0.503	0.427	0.432	0.28	0.313	0.22	0.723	0.549	1.02	0.819
LK-2	0.19	0.188	0.131	0.181	0.194	0.21	0.228	0.158	0.578		0.483	0.403	0.163	0.409	0.525	0.811	0.417
EKVX	0.884		0.921	0.842	0.634		0.791	0.688	0.332	0.44	0.34	0.263	0.22	0.942		1.03	1.02
EMC-BAC-2	1.08	1.03	1.19	1.22	0.38	0.382	0.22	0.329	0.488	0.499	0.487	0.398	0.348	0.798	0.695	0.807	0.807
NCI-H520	0.187	0.231	0.221	0.233	0.236	0.282	0.327	0.214	0.204	0.18	0.22	0.163	0.145	1.06	1.13	1.02	0.956
NCI-H322M	0.861			0.825	0.461			0.475	0.489	0.436	0.478	0.438	0.483	0.851		0.964	0.885
COR-L 105	0.738			0.935	0.649			0.582	0.393	0.406	0.369	0.389	0.423	1		1.3	1.17
NCI-H2170	0.58	0.486	0.559	0.545	0.67	0.194	0.686	0.7	0.407	0.382	0.329	0.302	0.201				
NCI-H358	0.27		0.504	0.267	0.7	0.47	0.928	0.882	0.134	0.139	0.125	0.103	0.127	0.686		1	0.79
NCI-H1793	0.16		0.173	0.166	0.274		0.316	0.3	0.3	0.3	0.236	0.187	0.181	0.877		0.893	0.897
NCI-H2405	0.667	0.625		0.576	0.611	0.637		0.621	0.509	0.491	0.472	0.401	0.34	0.952	0.776		0.983
NCI-H727	0.309		0.313	0.353	0.571	0.561	1.08	0.526	0.655	0.65	0.752	0.622	0.625	0.265	0.281	0.415	0.394
201T	1.01	1.05	1.14	1.03	0.757	0.78	0.776	0.497	0.354	0.36	0.342	0.368	0.38	0.994	0.969	1.06	0.989
